± gives the expanded uncertainty stated by the source.
Settings: 283.15 K, Liquid, Vibrating tube method

FC(C(F)(F)F)C(F)(F)F [1,1,1,2,3,3,3-heptafluoropropane]
Settings	mass density [kg/m3]
10458 kPa	1500.1 ± 1.6
10488 kPa	1500.2 ± 1.6
10528 kPa	1500.3 ± 1.6
10559 kPa	1500.4 ± 1.6
10588 kPa	1500.6 ± 1.6
10774 kPa	1501.4 ± 1.6
10816 kPa	1501.5 ± 1.6
10838 kPa	1501.7 ± 1.6
10868 kPa	1501.8 ± 1.6
10899 kPa	1502 ± 1.6
10925 kPa	1502.1 ± 1.6
10959 kPa	1502.2 ± 1.6
10981 kPa	1502.4 ± 1.6
11024 kPa	1502.5 ± 1.6
11055 kPa	1502.6 ± 1.6
12114 kPa	1507 ± 1.6
12149 kPa	1507.1 ± 1.6
12177 kPa	1507.2 ± 1.6
12214 kPa	1507.4 ± 1.6
12245 kPa	1507.6 ± 1.6
12281 kPa	1507.6 ± 1.6
12311 kPa	1507.7 ± 1.6
12342 kPa	1507.9 ± 1.6
12373 kPa	1508 ± 1.6
12405 kPa	1508.2 ± 1.6
12437 kPa	1508.3 ± 1.6
12476 kPa	1508.3 ± 1.6
12508 kPa	1508.5 ± 1.6
12544 kPa	1508.6 ± 1.6
12576 kPa	1508.7 ± 1.6
12608 kPa	1509 ± 1.6
12641 kPa	1509.1 ± 1.6
12677 kPa	1509.2 ± 1.6
12709 kPa	1509.4 ± 1.6
12748 kPa	1509.5 ± 1.6
12780 kPa	1509.7 ± 1.6
13258 kPa	1511.5 ± 1.6
13353 kPa	1512 ± 1.6
14612 kPa	1516.6 ± 1.6
14643 kPa	1516.8 ± 1.6
14673 kPa	1516.9 ± 1.6
14713 kPa	1517.2 ± 1.6
14739 kPa	1517.4 ± 1.6
14769 kPa	1517.4 ± 1.6
14799 kPa	1517.6 ± 1.6
14834 kPa	1517.7 ± 1.6
14886 kPa	1517.8 ± 1.6
14927 kPa	1517.9 ± 1.6
14957 kPa	1518.1 ± 1.6
14998 kPa	1518.3 ± 1.6
15045 kPa	1518.4 ± 1.6
15086 kPa	1518.5 ± 1.6
15117 kPa	1518.8 ± 1.6
15153 kPa	1518.8 ± 1.6
15184 kPa	1518.9 ± 1.6
15215 kPa	1519.2 ± 1.6
15256 kPa	1519.2 ± 1.6
15287 kPa	1519.4 ± 1.6
15328 kPa	1519.4 ± 1.6
15365 kPa	1519.5 ± 1.6
15400 kPa	1519.8 ± 1.6
15442 kPa	1519.9 ± 1.6
15474 kPa	1520 ± 1.6
15505 kPa	1520 ± 1.6
15536 kPa	1520.4 ± 1.6
15572 kPa	1520.5 ± 1.6
15607 kPa	1520.5 ± 1.6
15643 kPa	1520.7 ± 1.6
15673 kPa	1520.8 ± 1.6
15714 kPa	1521 ± 1.6
16087 kPa	1522.4 ± 1.6
16114 kPa	1522.4 ± 1.6
16151 kPa	1522.5 ± 1.6
16175 kPa	1522.7 ± 1.6
16606 kPa	1524.3 ± 1.6
16678 kPa	1524.6 ± 1.6
16711 kPa	1524.5 ± 1.6
17447 kPa	1527.3 ± 1.6
17481 kPa	1527.3 ± 1.6
17515 kPa	1527.4 ± 1.6
17545 kPa	1527.7 ± 1.6
17593 kPa	1527.7 ± 1.6
18341 kPa	1530.5 ± 1.6
18418 kPa	1530.6 ± 1.6
18457 kPa	1530.8 ± 1.6
18487 kPa	1530.8 ± 1.6
18526 kPa	1531.1 ± 1.6
18571 kPa	1531.1 ± 1.6
19435 kPa	1534.2 ± 1.6
19479 kPa	1534.3 ± 1.6
19508 kPa	1534.3 ± 1.6
19536 kPa	1534.5 ± 1.6
19574 kPa	1534.6 ± 1.6
19602 kPa	1534.7 ± 1.6
19640 kPa	1534.9 ± 1.6
19673 kPa	1535 ± 1.6
19706 kPa	1535.1 ± 1.6
19739 kPa	1535.3 ± 1.6
19785 kPa	1535.4 ± 1.6
19809 kPa	1535.4 ± 1.6
19854 kPa	1535.6 ± 1.6
19878 kPa	1535.6 ± 1.6
19911 kPa	1535.8 ± 1.6
19949 kPa	1535.8 ± 1.6
19977 kPa	1536.1 ± 1.6
20004 kPa	1536 ± 1.6
20033 kPa	1536.1 ± 1.6
20218 kPa	1536.8 ± 1.6
20257 kPa	1536.9 ± 1.6
20300 kPa	1537.1 ± 1.6
20333 kPa	1537.1 ± 1.6
20396 kPa	1537.4 ± 1.6
20492 kPa	1537.8 ± 1.6
20536 kPa	1538 ± 1.6
20566 kPa	1538 ± 1.6
20605 kPa	1538.1 ± 1.6
20635 kPa	1538.2 ± 1.6
20671 kPa	1538.4 ± 1.6
20709 kPa	1538.4 ± 1.6
20746 kPa	1538.6 ± 1.6
20776 kPa	1538.6 ± 1.6
20810 kPa	1538.7 ± 1.6
20840 kPa	1538.9 ± 1.6
20879 kPa	1539.1 ± 1.7
20918 kPa	1539.3 ± 1.7
20961 kPa	1539.3 ± 1.7
20991 kPa	1539.4 ± 1.7
21029 kPa	1539.6 ± 1.7
21058 kPa	1539.4 ± 1.7
21099 kPa	1539.7 ± 1.7
21129 kPa	1539.8 ± 1.7
21172 kPa	1539.9 ± 1.7
21208 kPa	1540.1 ± 1.7
21242 kPa	1540.3 ± 1.7
21281 kPa	1540.4 ± 1.7
21310 kPa	1540.4 ± 1.7
21350 kPa	1540.7 ± 1.7
21418 kPa	1540.9 ± 1.7
21453 kPa	1540.9 ± 1.7
21503 kPa	1541.2 ± 1.7
21541 kPa	1541.2 ± 1.7
21571 kPa	1541.3 ± 1.7
21610 kPa	1541.4 ± 1.7
21645 kPa	1541.5 ± 1.7
21684 kPa	1541.6 ± 1.7
21709 kPa	1541.6 ± 1.7
21753 kPa	1541.9 ± 1.7
21784 kPa	1542 ± 1.7
21834 kPa	1542.2 ± 1.7
21870 kPa	1542.3 ± 1.7
21901 kPa	1542.3 ± 1.7
21936 kPa	1542.5 ± 1.7
21972 kPa	1542.7 ± 1.7
22011 kPa	1542.7 ± 1.7
22041 kPa	1542.8 ± 1.7
22080 kPa	1543.1 ± 1.7
22115 kPa	1543.2 ± 1.7
22145 kPa	1543.2 ± 1.7
22190 kPa	1543.1 ± 1.7
22231 kPa	1543.5 ± 1.7
22261 kPa	1543.6 ± 1.7
22302 kPa	1543.7 ± 1.7
22349 kPa	1543.9 ± 1.7
22379 kPa	1543.9 ± 1.7
22424 kPa	1544 ± 1.7
22459 kPa	1544.1 ± 1.7
22539 kPa	1544.5 ± 1.7
22579 kPa	1544.6 ± 1.7
22710 kPa	1545.1 ± 1.7
22747 kPa	1545.1 ± 1.7
22782 kPa	1545.2 ± 1.7
22829 kPa	1545.3 ± 1.7
22864 kPa	1545.6 ± 1.7
22974 kPa	1545.8 ± 1.7
23050 kPa	1545.9 ± 1.7
23131 kPa	1546.2 ± 1.7
23178 kPa	1546.5 ± 1.7
23230 kPa	1546.7 ± 1.7
23275 kPa	1546.8 ± 1.7
23311 kPa	1546.9 ± 1.7
23342 kPa	1546.9 ± 1.7
23378 kPa	1547.1 ± 1.7
23418 kPa	1547.2 ± 1.7
23678 kPa	1548 ± 1.7
23750 kPa	1548.3 ± 1.7
23792 kPa	1548.5 ± 1.7
24059 kPa	1549.2 ± 1.7
24099 kPa	1549.4 ± 1.7
24146 kPa	1549.5 ± 1.7
24192 kPa	1549.5 ± 1.7
24228 kPa	1549.8 ± 1.7
24269 kPa	1549.9 ± 1.7
24309 kPa	1550.1 ± 1.7
24608 kPa	1550.8 ± 1.7
24649 kPa	1551 ± 1.7
24695 kPa	1551.2 ± 1.7
24731 kPa	1551.2 ± 1.7
24761 kPa	1551.4 ± 1.7
24807 kPa	1551.5 ± 1.7
24838 kPa	1551.8 ± 1.7
24869 kPa	1551.8 ± 1.7
24920 kPa	1551.9 ± 1.7
24950 kPa	1552 ± 1.7
24990 kPa	1552.1 ± 1.7
25031 kPa	1552.2 ± 1.7

Reference: the NIST ThermoML archive (doi:10.1021/je700260f)
